Results: publication PMC11435058, “Synthesis of New Thiazole-Privileged Chalcones as Tubulin Polymerization Inhibitors with Potential Anticancer Activities” (Pharmaceuticals, 2024)
Read-outs that look alike come from different tables or passages of the source.

Experiments:
PC-3 = assay: NCI-60 anticancer screen (SRB; single dose and five doses); details: Homo sapiens
HS 578T = assay: as above; details: Homo sapiens
DU-145 = assay: as above; details: Homo sapiens
HOP-92 = assay: as above; details: Homo sapiens
HT29 = assay: as above; details: Homo sapiens
SK-MEL-5 = assay: as above; details: Homo sapiens
IGROV1 = assay: as above; details: Homo sapiens
A549/ATCC = assay: as above; details: Homo sapiens
HL-60(TB) = assay: as above; details: Homo sapiens
SF-268 = assay: as above; details: Homo sapiens
COLO 205 = assay: as above; details: Homo sapiens
HOP-62 = assay: as above; details: Homo sapiens
CAKI-1 = assay: as above; details: Homo sapiens
NCI/ADR-RES = assay: as above; details: Homo sapiens
MOLT-4 = assay: as above; details: Homo sapiens
[1] = system: 60 human tumor cell lines panel; assay: NCI-60 anticancer screen, whole panel (means and ranges over the cell lines); type: cell-based; details: for activity at 10 µM: Homo sapiens, 48 h, dose of 10 μM
RPMI-8226 = assay: NCI-60 anticancer screen (SRB; single dose and five doses); details: Homo sapiens
MALME-3M = assay: as above; details: Homo sapiens
SR = assay: as above; details: Homo sapiens
MDA-MB-231/ATCC = assay: as above; details: Homo sapiens
K-562 = assay: as above; details: Homo sapiens
HCT-15 = assay: as above; details: Homo sapiens
BT-549 = assay: as above; details: Homo sapiens
RXF 393 = assay: as above; details: Homo sapiens
UACC-62 = assay: as above; details: Homo sapiens
LOX IMVI = assay: as above; details: Homo sapiens
KM12 = assay: as above; details: Homo sapiens
T-47D = assay: as above; details: Homo sapiens, T47D
[2] = 48 h, read-out: Growth Percentage
[3] = five doses, mean graph midpoint over all cell lines

Cc1[nH]c(=S)sc1C(=O)/C=C/c1ccc(F)cc1 [2c, (E)-3-(4-Fluorophenyl)-1-(4-Methyl-2-Thioxo-2,3-Dihydrothiazol-5-yl)Prop-2-En-1-One]
GI50 (PC-3; PC-3): 5.82 µM | activity at 10 µM (PC-3; PC-3, 48 h, read-out: Growth Percentage): 43.4% | CC50 (PC-3; PC-3, read-out: LC50): > 100 µM | IC (TGI) (PC-3; PC-3, read-out: TGI): 29.7 µM | GI50 (HS 578T): 13.2 µM | activity at 10 µM (HS 578T; [2]): 95.3% | CC50 (HS 578T; read-out: LC50): > 100 µM | IC (TGI) (HS 578T; read-out: TGI): 40.2 µM | GI50 (DU-145; DU-145): 4.32 µM | activity at 10 µM (DU-145; DU-145, 48 h, read-out: Growth Percentage): 20.3% | CC50 (DU-145; DU-145, read-out: LC50): 39.9 µM | IC (TGI) (DU-145; DU-145, read-out: TGI): 15.7 µM | GI50 (HOP-92; HOP-92): 3.35 µM | activity at 10 µM (HOP-92; HOP-92, 48 h, read-out: Growth Percentage): 45.4% | CC50 (HOP-92; HOP-92, read-out: LC50): 56 µM | IC (TGI) (HOP-92; HOP-92, read-out: TGI): 15.8 µM | GI50 (HT29; HT-29): 10.6 µM | activity at 10 µM (HT29; HT-29, 48 h, read-out: Growth Percentage): 73.3% | CC50 (HT29; HT-29, read-out: LC50): 52.4 µM | IC (TGI) (HT29; HT-29, read-out: TGI): 23.6 µM | GI50 (SK-MEL-5; SK-MEL-5): 6.77 µM | activity at 10 µM (SK-MEL-5; SK-MEL-5, 48 h, read-out: Growth Percentage): 42.6% | CC50 (SK-MEL-5; SK-MEL-5, read-out: LC50): 44.2 µM | IC (TGI) (SK-MEL-5; SK-MEL-5, read-out: TGI): 19.5 µM | GI50 (IGROV1; IGROV-1): 4.93 µM | activity at 10 µM (IGROV1; IGROV-1, 48 h, read-out: Growth Percentage): 51.2% | CC50 (IGROV1; IGROV-1, read-out: LC50): 62.3 µM | IC (TGI) (IGROV1; IGROV-1, read-out: TGI): 19.7 µM | GI50 (A549/ATCC; A549): 12.4 µM | activity at 10 µM (A549/ATCC; A549, 48 h, read-out: Growth Percentage): 56% | CC50 (A549/ATCC; A549, read-out: LC50): 57.7 µM | IC (TGI) (A549/ATCC; A549, read-out: TGI): 26.8 µM | GI50 (HL-60(TB); HL-60): 2.83 µM | activity at 10 µM (HL-60(TB); HL-60, 48 h, read-out: Growth Percentage): 13% | CC50 (HL-60(TB); HL-60, read-out: LC50): > 100 µM | IC (TGI) (HL-60(TB); HL-60, read-out: TGI): 32.2 µM | GI50 (SF-268; SF-268): 13 µM | activity at 10 µM (SF-268; SF-268, 48 h, read-out: Growth Percentage): 58.6% | CC50 (SF-268; SF-268, read-out: LC50): 63.1 µM | IC (TGI) (SF-268; SF-268, read-out: TGI): 28.7 µM | GI50 (COLO 205; COLO 205): 15.4 µM | CC50 (COLO 205; COLO 205, read-out: LC50): 80.4 µM | IC (TGI) (COLO 205; COLO 205, read-out: TGI): 35.2 µM | GI50 (HOP-62; HOP-62): 3.83 µM | CC50 (HOP-62; HOP-62, read-out: LC50): 48.7 µM | IC (TGI) (HOP-62; HOP-62, read-out: TGI): 16.2 µM | GI50 (CAKI-1; CAKI-1): 6.89 µM | activity at 10 µM (CAKI-1; CAKI-1, 48 h, read-out: Growth Percentage): 31.6% | CC50 (CAKI-1; CAKI-1, read-out: LC50): 45.4 µM | IC (TGI) (CAKI-1; CAKI-1, read-out: TGI): 20.2 µM | GI50 (NCI/ADR-RES): 5.92 µM | activity at 10 µM (NCI/ADR-RES; [2]): -10.8% | CC50 (NCI/ADR-RES; read-out: LC50): 85 µM | IC (TGI) (NCI/ADR-RES; read-out: TGI): 24.9 µM | GI50 (MOLT-4; MOLT-4): 16.7 µM | activity at 10 µM (MOLT-4; MOLT-4, 48 h, read-out: Growth Percentage): 58.7% | CC50 (MOLT-4; MOLT-4, read-out: LC50): > 100 µM | IC (TGI) (MOLT-4; MOLT-4, read-out: TGI): 64.3 µM | activity at 10 µM ([1]; mean over the tested cell lines, read-out: Mean growth percentage): 36.7% | activity at 10 µM ([1]; range over the cell lines, read-out: growth percentages against most of the tested cells (lowest to highest)): -13.6 to 119% | Log10GI50 _MID [1, 3]: -5.23 Molar | Log10LC50 _MID [1, 3]: -4.26 Molar | Log10TGI _MID [1, 3]: -4.65 Molar | GI50 (RPMI-8226; RPMI-8226): 2.85 µM | activity at 10 µM (RPMI-8226; RPMI-8226, 48 h, read-out: Growth Percentage): 2.32% | CC50 (RPMI-8226; RPMI-8226, read-out: LC50): > 100 µM | IC (TGI) (RPMI-8226; RPMI-8226, read-out: TGI): > 100 µM | GI50 (MALME-3M): 12.4 µM | activity at 10 µM (MALME-3M; [2]): 85.8% | CC50 (MALME-3M; read-out: LC50): 60.9 µM | IC (TGI) (MALME-3M; read-out: TGI): 27.5 µM | GI50 (SR): 3.19 µM | activity at 10 µM (SR; [2]): 18.3% | CC50 (SR; read-out: LC50): > 100 µM | IC (TGI) (SR; read-out: TGI): > 100 µM | GI50 (MDA-MB-231/ATCC; MDA-MB-231): 15.7 µM | activity at 10 µM (MDA-MB-231/ATCC; MDA-MB-231, 48 h, read-out: Growth Percentage): 29.7% | CC50 (MDA-MB-231/ATCC; MDA-MB-231, read-out: LC50): 66.1 µM | IC (TGI) (MDA-MB-231/ATCC; MDA-MB-231, read-out: TGI): 32.2 µM | GI50 (K-562; K562): 3.25 µM | activity at 10 µM (K-562; K562, 48 h, read-out: Growth Percentage): 20.4% | CC50 (K-562; K562, read-out: LC50): > 100 µM | IC (TGI) (K-562; K562, read-out: TGI): 48.8 µM | GI50 (HCT-15; HCT-15): 3.27 µM | activity at 10 µM (HCT-15; HCT-15, 48 h, read-out: Growth Percentage): 14.7% | CC50 (HCT-15; HCT-15, read-out: LC50): 43.7 µM | IC (TGI) (HCT-15; HCT-15, read-out: TGI): 14.2 µM | GI50 (BT-549; BT-549): 2.34 µM | activity at 10 µM (BT-549; BT-549, 48 h, read-out: Growth Percentage): 23.2% | IC (TGI) (BT-549; BT-549, read-out: TGI): 8.27 µM | GI50 (RXF 393; RXF 393): 3.02 µM | activity at 10 µM (RXF 393; RXF 393, 48 h, read-out: Growth Percentage): 23.2% | CC50 (RXF 393; RXF 393, read-out: LC50): 37.2 µM | IC (TGI) (RXF 393; RXF 393, read-out: TGI): 13 µM | GI50 (UACC-62; UACC-62): 5.3 µM | activity at 10 µM (UACC-62; UACC-62, 48 h, read-out: Growth Percentage): 47.3% | IC (TGI) (UACC-62; UACC-62, read-out: TGI): 19.3 µM | GI50 (LOX IMVI): 3.26 µM | activity at 10 µM (LOX IMVI; [2]): 8.91% | CC50 (LOX IMVI; read-out: LC50): 36.6 µM | IC (TGI) (LOX IMVI; read-out: TGI): 12.7 µM | GI50 (KM12; KM12): 4.28 µM | activity at 10 µM (KM12; KM12, 48 h, read-out: Growth Percentage): 6.85% | CC50 (KM12; KM12, read-out: LC50): 41 µM | IC (TGI) (KM12; KM12, read-out: TGI): 15.4 µM | GI50 (T-47D): 3.94 µM | CC50 (T-47D; read-out: LC50): > 100 µM | IC (TGI) (T-47D; read-out: TGI): 28.8 µM
